Here are results for twelve compounds from patent publication US20230265083A1, “Heterocycle CDK Inhibitors And Their Use Thereof” (Prelude Therapeutics Incorporated, priority 2020, published 2023).

One assay concerns the target T1, CDK4/Cyclin D1 (Homo sapiens, UniProt P11802).
T1 construct: purchased ProQinase; host or cells: insect cell
Put plainly: CDK4/CyclinD1 Enzymatic Activity Assay (TR-FRET). The class given is biochemical. The note with it: ATP 2 mM, recombinant CDK4/Cyclin D1 1 nM, read-out: CDK4_D1 IC50. Here is the method:
CDK4/CyclinD1 Enzymatic Activity Assay
(§1) The inhibitory activity of compounds was evaluated in vitro using TR-FRET assay with white 384-well low volume microplate (Greiner Bio-One). CDK4/Cyclin D1 catalyzed phosphorylation of peptides in the presence and absence of compounds was measured and used in IC50 determination. Recombinant protein complex CDK4/Cyclin D1, expressed from insect cell, was purchased from ProQinase. Testing compounds were dissolved in DMSO at 1 mM and tested in 9-dose IC50 mode. The reaction mixture was prepared by mixing CDK4/CyclinD1 (1 nM final), ULight-4E-BP1 (100 nM final, Perkinelmer, TRF0128-D), and ATP (2 mM final) in assay buffer (20 mM of HEPES pH 7.4, 1 mM of EGTA, 0.05% BSA, 0.005% Tween 20, and 1 mM TCEP). The compound of interest in DMSO was added to each well in 3-fold serial dilution by the dispenser (TECAN D300E) to make a 9.9 μL of the reaction mixture. After 20 minutes of preincubation at room temperature, 0.1 μL MgCl2 (10 mM final) was added to initiate the reaction. Following a 45 minutes incubation at 37° C., the reaction was stopped by the addition of 2 μL of quenching buffer consisting of Lance detection buffer (Perkinelmer CR97-100C), LANCE Ultra Europium-anti-P-4E-BP1 (Perkinelmer, TRF0216-D), EDTA, and incubate at room temperature for additional 60 minutes in the dark. The reaction signal was measured by Envision multimode plate reader (PerkinElmer, 2102-0010). IC50 values were determined by fitting the data to the standard 4 parameters with Hill Slope using GraphPad Prism software.

The next assay deals with H929 cells. Put plainly: CellTiter-Glo Protocol (Proliferation). The class given is cell-based. The note with it: Homo sapiens, NCI-H929, 24 hours, read-out: PROLIFERATION_CTG_H929 IC50. The protocol: CellTiter-Glo® Protocol (Proliferation)
Dispense 10 μL aliquot of prepared H929 cells (1:1 ratio of cells: Trypan Blue (#1450013, Bio-Rad)) onto cell counting slide (#145-0011, Bio-Rad) and obtain cell density and cell viability using a cell counter (TC20, Bio-Rad). Remove appropriate volume of resuspended cells from culture flask to accommodate 4000 cells/well at 10 μL/well. Transfer H929 cells to 50 mL conical (#430290, Corning). Spin down at 1000 rpm for 5 min. using a tabletop centrifuge (SPINCHRON 15, Beckman). Discard supernatant and resuspend cell pellet in modified RPMI 1640 (#10-040-CV, Corning) cell culture media containing 10% FBS (F2422-500ML, Sigma), sodium pyruvate (100 mM) (#25-000-CL, Corning), HEPES buffer (1M) (#25-060-CL, Corning) and glucose (200 g/L) (A24940-01, Gibco) to a cell density of 400,000 cells/mL. Dispense 10 μL of resuspended H929 cells per well in 384-well small volume TC treated plate (#784080, Greiner Bio-one) using standard cassette (#50950372, Thermo Scientific) on Multidrop Combi (#5840310, Thermo Scientific) in laminar flow cabinet. Dispense compounds onto plates using a digital liquid dispenser (D300E, Tecan). Incubate plates in humidified tissue culture incubator at 37° C. for 24 hours. Add 10 μL of prepared CellTiTer-Glo® detection buffer (G7570, Promega) to each well of 384-well plate using small tube cassette (#24073295, Thermo Scientific) on Combi multi-drop, incubate at RT for 30-60 min. Read plates with a microplate reader (PheraStar, BMG Labtech) using 384 well luminescence mode. See Table B (Proliferation_CTG_H929).

Another assay has as its target T2, CDK9/Cyclin T1 (Homo sapiens, UniProt P50750).
T2 construct: purchased ProQinase; host or cells: insect cell
Kind of assay: CDK9/CyclinT1 Enzymatic Activity Assay (TR-FRET). The class given is biochemical. Particulars: ATP 1 mM, recombinant CDK9/Cyclin T1 1 nM, read-out: CDK9_T1 IC50. Here is the method: CDK9/CyclinT1 Enzymatic Activity Assay
as §1, with “Bio-One). CDK9/Cyclin T1” for “Bio-One). CDK4/Cyclin D1”, “complex CDK9/Cyclin T1,” for “complex CDK4/Cyclin D1,”, “mixing CDK9/CyclinT1” for “mixing CDK4/CyclinD1”, “ULight-4E-BP1 (50” for “ULight-4E-BP1 (100”, “ATP (1” for “ATP (2”

In a further assay the target is T3, CDK2/Cyclin A2 (Homo sapiens, UniProt P24941).
T3 construct: purchased ProQinase; host or cells: insect cell
Kind of assay: CDK2/CyclinA2 Enzymatic Activity Assay (TR-FRET). The class given is biochemical. The note with it: ATP 1 mM, recombinant CDK2/Cyclin A2 1 nM, read-out: CDK2_A2 IC50. Here is the method:
CDK2/CyclinA2 Enzymatic Activity Assay
The inhibitory activity of compounds was evaluated in vitro using TR-FRET assay with white 384-well low volume microplate (Greiner Bio-One). CDK2/Cyclin A2 catalyzed phosphorylation of peptides in the presence and absence of compounds was measured and used in IC50 determination. Recombinant protein complex CDK2/Cyclin A2, expressed from insect cell, was purchased from ProQinase. Testing compounds were dissolved in DMSO at 1 mM and tested in 9-dose IC50 mode. The reaction mixture was prepared by mixing CDK2/CyclinA2 (1 nM final), ULight-4E-BP1 (50 nM final, Perkinelmer, TRF0128-D), and ATP (1 mM final) in assay buffer (20 mM of HEPES pH 7.4, 1 mM of EGTA, 0.05% BSA, 0.005% Tween 20, and 1 mM TCEP). The compound of interest in DMSO was added to each well in 3-fold serial dilution by the dispenser (TECAN D300E) to make a 9.9 μL of the reaction mixture. After 20 minutes preincubation at room temperature, 0.1 μL MgCl2 (10 mM final) was added to initiate the reaction. Following a 45 minutes incubation at 37° C., the reaction was stopped by addition of 2 μL of quenching buffer consisting of Lance detection buffer (Perkinelmer CR97-100C), LANCE Ultra Europium-anti-P-4E-BP1 (Perkinelmer, TRF0216-D), EDTA, and incubate at room temperature for additional 60 minutes in the dark. The reaction signal was measured by Envision multimode plate reader (PerkinElmer, 2102-0010). IC50 values were determined by fitting the data to the standard 4 parameters with Hill Slope using GraphPad Prism software.

T1 sequence (P11802 whole entry): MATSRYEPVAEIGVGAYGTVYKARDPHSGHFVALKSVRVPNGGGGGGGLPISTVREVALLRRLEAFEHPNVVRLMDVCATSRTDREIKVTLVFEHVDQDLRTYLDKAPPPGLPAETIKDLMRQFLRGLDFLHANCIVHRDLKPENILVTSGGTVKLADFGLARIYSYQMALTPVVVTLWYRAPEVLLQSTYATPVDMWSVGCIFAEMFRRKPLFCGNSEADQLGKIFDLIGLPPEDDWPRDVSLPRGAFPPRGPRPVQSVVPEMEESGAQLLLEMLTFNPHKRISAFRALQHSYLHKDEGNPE
T1 sequence (P24385 whole entry partner): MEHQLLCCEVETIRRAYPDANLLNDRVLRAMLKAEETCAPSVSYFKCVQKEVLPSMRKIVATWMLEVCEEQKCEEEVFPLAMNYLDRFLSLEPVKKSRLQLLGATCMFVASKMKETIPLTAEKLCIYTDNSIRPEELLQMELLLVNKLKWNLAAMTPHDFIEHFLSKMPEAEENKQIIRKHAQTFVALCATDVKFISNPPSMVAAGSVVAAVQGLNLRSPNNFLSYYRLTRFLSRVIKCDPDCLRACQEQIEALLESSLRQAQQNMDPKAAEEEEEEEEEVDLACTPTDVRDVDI
T2 sequence (P50750 whole entry): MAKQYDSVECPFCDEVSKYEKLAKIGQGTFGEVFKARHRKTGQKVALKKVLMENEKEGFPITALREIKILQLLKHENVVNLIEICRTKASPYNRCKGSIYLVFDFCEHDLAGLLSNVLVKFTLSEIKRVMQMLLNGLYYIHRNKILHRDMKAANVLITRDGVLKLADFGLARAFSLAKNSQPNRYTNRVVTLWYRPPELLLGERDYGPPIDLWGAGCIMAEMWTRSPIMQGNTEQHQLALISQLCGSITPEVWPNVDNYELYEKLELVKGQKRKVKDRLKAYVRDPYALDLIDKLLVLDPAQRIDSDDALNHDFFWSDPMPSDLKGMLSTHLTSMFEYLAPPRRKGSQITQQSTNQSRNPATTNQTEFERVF
T2 sequence (O60563 whole entry partner): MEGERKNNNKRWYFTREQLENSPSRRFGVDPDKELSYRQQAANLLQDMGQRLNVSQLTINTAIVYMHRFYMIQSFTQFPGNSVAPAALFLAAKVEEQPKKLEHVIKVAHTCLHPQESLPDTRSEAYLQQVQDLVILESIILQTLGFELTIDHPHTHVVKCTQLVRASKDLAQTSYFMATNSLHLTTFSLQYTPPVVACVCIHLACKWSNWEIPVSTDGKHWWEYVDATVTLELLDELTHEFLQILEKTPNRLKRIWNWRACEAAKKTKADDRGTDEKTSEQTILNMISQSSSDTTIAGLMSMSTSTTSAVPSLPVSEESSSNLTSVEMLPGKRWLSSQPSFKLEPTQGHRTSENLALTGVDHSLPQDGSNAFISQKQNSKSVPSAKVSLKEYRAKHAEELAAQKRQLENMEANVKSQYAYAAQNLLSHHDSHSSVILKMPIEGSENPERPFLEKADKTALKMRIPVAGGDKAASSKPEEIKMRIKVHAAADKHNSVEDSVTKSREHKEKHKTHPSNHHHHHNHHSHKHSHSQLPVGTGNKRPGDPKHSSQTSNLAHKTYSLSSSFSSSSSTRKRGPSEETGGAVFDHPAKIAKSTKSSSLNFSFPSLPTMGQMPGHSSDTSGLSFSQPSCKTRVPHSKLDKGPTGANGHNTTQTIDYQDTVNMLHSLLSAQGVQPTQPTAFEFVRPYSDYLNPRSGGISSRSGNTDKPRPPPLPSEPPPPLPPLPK

With `CC(=O)N[C@@H]1CCC[C@H](C(=O)Nc2cc(-c3cccc4c3CCN4)c(Cl)cn2)C1` [Example 1, (1S,3R)-3-acetamido-N-(5-chloro-4-(indolin-4-yl)pyridin-2-yl)cyclohexane-1-carboxamide], the figures for the IC50 at CDK4/Cyclin D1, in the assay with H929 cells and at CDK9/Cyclin T1 were 200 to 1000 nM, 20 to 200 nM and under 20 nM, respectively.
Consider `CC(=O)N[C@@H]1CCC[C@H](C(=O)Nc2cc(-c3cccc4c3CC(C)N4)c(Cl)cn2)C1` (stereo partly drawn) [Example 2, (1S,3R)-3-acetamido-N-(5-chloro-4-(2-methylindolin-4-yl)pyridin-2-yl)cyclohexane-1-carboxamide], for which the IC50 on CDK4/Cyclin D1 was 200 to 1000 nM; with H929 cells it was 20 to 200 nM; at CDK9/Cyclin T1, under 20 nM.
For `CC(=O)N[C@@H]1CCC[C@H](C(=O)Nc2cc(-c3cccc4c3CCCN4)c(Cl)cn2)C1` [Example 3, (1S,3R)-3-acetamido-N-(5-chloro-4-(1,2,3,4-tetrahydroquinolin-5-yl)pyridin-2-yl)cyclohexane-1-carboxamide] the same measures were over 1000 nM, 20 to 200 nM and 20 to 200 nM.
For `CC(=O)N[C@@H]1CCC[C@H](C(=O)Nc2cc(-c3cccc4c3OCCN4)c(Cl)cn2)C1` [Example 4, (1S,3R)-3-acetamido-N-(5-chloro-4-(3,4-dihydro-2H-benzo[b][1,4]oxazin-8-yl)pyridin-2-yl)cyclohexane-1-carboxamide] the same measures were over 1000 nM, 20 to 200 nM and under 20 nM.
Turning to `Cc1cnc(NC(=O)[C@H]2CCC[C@@H](NC(=O)CC#N)C2)cc1-c1cccc2c1CC(C)(C)N2` [Example 6, (1S,3R)-3-(2-cyanoacetamido)-N-(4-(2,2-dimethylindolin-4-yl)-5-methylpyridin-2-yl)cyclohexane-1-carboxamide], the IC50 was over 1000 nM on CDK4/Cyclin D1 and under 20 nM on CDK9/Cyclin T1.
`CC(=O)N[C@@H]1CCC[C@H](C(=O)Nc2cc(-c3cccc4c3OCC(C)(C)N4)c(Cl)cn2)C1` [Example 9, (1S,3R)-3-acetamido-N-(5-chloro-4-(3,3-dimethyl-3,4-dihydro-2H-benzo[b][1,4]oxazin-8-yl)pyridin-2-yl)cyclohexane-1-carboxamide]: the IC50 is over 1000 nM at CDK4/Cyclin D1 and under 20 nM at CDK9/Cyclin T1.
For `N#CCC(=O)N[C@@H]1CCC[C@H](C(=O)Nc2cc(-c3cccc4c3OCCN4)c(Cl)cn2)C1` [Example 10, (1S,3R)—N-(5-chloro-4-(3,4-dihydro-2H-benzo[b][1,4]oxazin-8-yl)pyridin-2-yl)-3-(2-cyanoacetamido)cyclohexane-1-carboxamide] the same measures were 20 to 200 nM and under 20 nM.
For `CC1(C)COc2c(cccc2-c2cc(NC(=O)[C@H]3CCC[C@@H](NC(=O)CC#N)C3)ncc2Cl)N1` [Example 11, (1S,3R)—N-(5-chloro-4-(3,3-dimethyl-3,4-dihydro-2H-benzo[b][1,4]oxazin-8-yl)pyridin-2-yl)-3-(2-cyanoacetamido)cyclohexane-1-carboxamide] the same measures were over 1000 nM and under 20 nM.
In the case of `N#CCC(=O)N[C@@H]1CCC[C@H](C(=O)Nc2cc(-c3cc(F)cc4c3OCCN4)c(Cl)cn2)C1` [Example 12, (1S,3R)—N-(5-chloro-4-(6-fluoro-3,4-dihydro-2H-benzo[b][1,4]oxazin-8-yl)pyridin-2-yl)-3-(2-cyanoacetamido)cyclohexane-1-carboxamide], the figures for the IC50 at CDK2/Cyclin A2, on CDK4/Cyclin D1 and at CDK9/Cyclin T1 were 200 to 1000 nM, 20 to 200 nM and under 20 nM, respectively.
`CC1COc2c(cc(F)cc2-c2cc(NC(=O)[C@H]3CCC[C@@H](NC(=O)CC#N)C3)ncc2Cl)N1` (stereo partly drawn) [Example 13, (1S,3R)—N-(5-chloro-4-(6-fluoro-3-methyl-3,4-dihydro-2H-benzo[b][1,4]oxazin-8-yl)pyridin-2-yl)-3-(2-cyanoacetamido)cyclohexane-1-carboxamide]: the figures for the IC50 at CDK4/Cyclin D1 and on CDK9/Cyclin T1 were 20 to 200 nM and under 20 nM, respectively.
Take `CC(=O)N[C@@H]1CCC[C@H](C(=O)Nc2cc(-c3cccc4c3CC(C)(C)O4)c(Cl)cn2)C1` [Example 14, (1S,3R)-3-acetamido-N-(5-chloro-4-(2,2-dimethyl-2,3-dihydrobenzofuran-4-yl)pyridin-2-yl)cyclohexane-1-carboxamide]: the IC50 on CDK4/Cyclin D1 was over 1000 nM; with H929 cells, 200 to 1000 nM; on CDK9/Cyclin T1, under 20 nM.
For the compound `CC1(C)Cc2cccc(-c3cc(NC(=O)[C@H]4CCC[C@@H](NC(=O)CC#N)C4)ncc3Cl)c2O1` [Example 15, (1S,3R)—N-(5-chloro-4-(2,2-dimethyl-2,3-dihydrobenzofuran-7-yl)pyridin-2-yl)-3-(2-cyanoacetamido)cyclohexane-1-carboxamide], the IC50 on CDK4/Cyclin D1 was over 1000 nM; on CDK9/Cyclin T1, under 20 nM.
